Results on four compounds are retold here after US10988523B2, “Modified lipidated Relaxin B chain peptides and their therapeutic use” (Sanofi, priority 2018, dated 2021).

Molecules are shown by their SMILES. In brackets after ≈: the same amount, converted by molar mass. Like-named read-outs stand apart in the source and are kept apart here. *1 amine or outer side, *2 acyl side, *3 side chain or, on linkers, in order; H or OH if unused. Where a SMILES comes first, the peptide text is derived from it. Side-chain parts run from the residue outwards. [ ]: non-standard residue; d: D form. The star is where a group is joined. PEG12 = NCCOCCOCCOCCOCCOCCOCCOCCOCCOCCOCCOCCOCCC(=O)O; γGlu = O=C(O)[C@H](CCC(=O)[*:2])N[*:1]; Stearoyl = CCCCCCCCCCCCCCCCCC(=O)*; Palmitoyl = CCCCCCCCCCCCCCCC(=O)*; αMeK = C[C@](N)(CCCCN)C(=O)O; Nle = CCCC[C@H](N)C(=O)O; AEEA = NCCOCCOCC(=O)O; Aib = CC(C)(N)C(=O)O

One data set has as its target T1, RXFP1 (Homo sapiens, UniProt Q9HBX9).
T1 construct: OVCAR5 cells expressing endogenous RXFP1; endogenous in cells; host or cells: OVCAR5 cells
T1 sequence (Q9HBX9 1-757): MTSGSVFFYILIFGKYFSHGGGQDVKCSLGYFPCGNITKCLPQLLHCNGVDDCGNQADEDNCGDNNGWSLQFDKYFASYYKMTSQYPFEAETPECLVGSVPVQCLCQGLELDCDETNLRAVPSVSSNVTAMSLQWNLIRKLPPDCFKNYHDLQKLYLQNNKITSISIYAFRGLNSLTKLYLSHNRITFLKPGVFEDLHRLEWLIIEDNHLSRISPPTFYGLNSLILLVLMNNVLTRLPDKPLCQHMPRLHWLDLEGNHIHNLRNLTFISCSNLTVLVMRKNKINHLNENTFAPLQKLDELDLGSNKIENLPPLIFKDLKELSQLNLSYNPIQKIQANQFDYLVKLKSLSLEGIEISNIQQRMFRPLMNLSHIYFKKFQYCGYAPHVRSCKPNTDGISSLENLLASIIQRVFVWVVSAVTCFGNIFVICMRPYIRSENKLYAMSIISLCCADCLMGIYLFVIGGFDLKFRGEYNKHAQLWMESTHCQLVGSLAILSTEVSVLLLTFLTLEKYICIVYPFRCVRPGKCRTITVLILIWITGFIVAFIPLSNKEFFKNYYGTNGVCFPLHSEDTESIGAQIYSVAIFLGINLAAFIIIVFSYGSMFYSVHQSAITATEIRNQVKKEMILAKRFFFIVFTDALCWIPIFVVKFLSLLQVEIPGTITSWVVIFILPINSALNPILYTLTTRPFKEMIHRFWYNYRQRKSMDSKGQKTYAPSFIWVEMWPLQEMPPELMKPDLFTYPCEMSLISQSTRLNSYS
Kind of data set: OVCAR5 cAMP assay (HTRF), RXFP1 agonist activity. It counts as cell-based. The settings on record: for EC50: OVCAR5 cells, cAMP HTRF, read-out: EC50 (nM), OVCAR 5 cells (cAMP); for Emax: OVCAR-5, maximal cAMP relative to H2-relaxin maximum (100%), read-out: EMax, OVCAR 5 cells (cAMP). In a few lines: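 OVCAR5 cells (endogenous RXFP1) pretreated 40 min at 37° C with 1 mM IBMX, then exposed to peptides in serum-free medium for 30 min at 37° C. Lysate cAMP read by HTRF; EC50 from variable-slope sigmoidal fit; Emax as % of H2-relaxin maximal cAMP in same run.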

Data set [1] in a line: Solubility testing of peptides in buffer. The format is physicochemical.
Data set [2] is described as follows: Stability testing of peptides in human plasma or blood. The format is in vitro ADME. The settings on record: 37° C.; for Human Plasma stability % remaining T = 0: human plasma or blood, T = 0 (reference), 5 μM. In a few lines: (§1)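 Peptide at 5 µM final was incubated at 37 °C in heparinized rat or human plasma or blood, sampled up to 4 h, and extracted with acetonitrile/1% TFA. HPLC peak areas relative to t0 give % remaining peptide.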

Data set [3] can be described thus: Stability testing of peptides in rat plasma or blood. The format is in vitro ADME. The note with it: 37° C.; for Rat plasma stability % remaining T = 0: rat plasma or blood, T = 0 (reference), 5 μM. In a few lines:
as §1

The mark [4] stands for this setting: acetate buffer 50 mM pH 4.5, target solubility 10.0 mg/ml, read-out: Solubility Acetate buffer pH 4.5.
Where [5] appears, read: phosphate buffer 50 mM pH 7.4, target solubility 10.0 mg/ml, read-out: Solubility phosphate buffer pH 7.4.
[6] abbreviates: whole blood, human blood, read-out: Human stability in blood % remaining 1 h.
Setting [7] is: whole blood, human blood, read-out: Human stability in blood % remaining 4 h.
Where [8] appears, read: whole blood, rat blood, read-out: Rat stability in blood % remaining 1 h.
[9] abbreviates: whole blood, rat blood, read-out: Rat stability in blood % remaining 4 h.
Where [10] appears, read: human plasma, read-out: Human Plasma stability % remaining 1 h.
[11] abbreviates: human plasma, read-out: Human Plasma stability % remaining 4 h.
Setting [12] is: rat plasma, read-out: Rat plasma stability % remaining 1 h.
[13] abbreviates: rat plasma, read-out: Rat plasma stability % remaining 4 h.

For `CCCCCCCCCCCCCCCC(=O)N[C@@H](CCC(=O)N[C@@H](CCC(=O)N[C@@H](CCC(=O)N[C@@H](CCC(=O)NCCCC[C@H](NC(=O)COCCOCCNC(=O)COCCOCCNC(=O)COCCOCCNC(=O)COCCOCCNC(=O)[C@H](CCCCNC(C)=O)NC(=O)[C@H](C)NC(=O)[C@H](CCCNC(=N)N)NC(=O)[C@](C)(CCCCN)NC(=O)[C@H](CO)NC(=O)[C@H](Cc1ccccc1)NC(=O)[C@@H](NC(=O)[C@H](CO)NC(=O)[C@H](CCCC)NC(=O)CNC(=O)[C@H](CCC(=O)O)NC(=O)C(C)(C)NC(=O)C(C)(C)NC(=O)[C@@H](NC(=O)[C@H](CCCCNC(C)=O)NC(=O)[C@H](C)NC(=O)[C@H](CCCNC(=N)N)NC(=O)[C@@H](NC(=O)[C@H](CCCCN)NC(=O)[C@H](CCC(=O)O)NC(=O)[C@H](CCCNC(=N)N)NC(=O)CNC(=O)[C@H](CCC(=O)O)NC(=O)[C@H](CC(C)C)NC(C)=O)C(C)C)[C@@H](C)CC)[C@@H](C)O)C(N)=O)C(=O)O)C(=O)O)C(=O)O)C(=O)O` [compound 150] (Ac-LEGREKVRAK(Ac)I[Aib][Aib]EG[Nle]STFS[αMeK]RAK(Ac)[AEEA][AEEA][AEEA][AEEA]K([γGlu-γGlu-γGlu-γGlu-Palmitoyl])-NH2), the concentration giving a half-maximal response (EC50) – broadly, the concentration that produces a half-maximal response – at RXFP1 turned out to be 0.07 nM. The maximal response (Emax) (commonly the size of the effect at its maximum, as opposed to the concentration needed) at RXFP1 was 92%. Besides, the values for the solubility in data set [1] (setting [4]) and in data set [1] (setting [5]) were 1500 µg/mL (≈ 351 µM) and > 10000 µg/mL, respectively. Also, the “Human Plasma stability % remaining T = 0” value in data set [2] is reported as 100%. For the same compound, the share remaining at 1 h, 5 µM in data set [2] (setting [6]) is 34%; in data set [3] (setting [8]), 86%. Further, the share remaining at 4 h, 5 µM in data set [2] (setting [7]) came to 78%; in data set [3] (setting [9]), 90%. In addition, in data set [3], the “Rat plasma stability % remaining T = 0” value turned out to be 100%.

`CCCCCCCCCCCCCCCCCC(=O)N[C@@H](CCC(=O)N[C@@H](CCC(=O)N[C@@H](CCC(=O)NCCCC[C@H](NC(=O)CCOCCOCCOCCOCCOCCOCCOCCOCCOCCOCCOCCOCCNC(=O)[C@H](CCCCNC(C)=O)NC(=O)[C@H](CCCCN)NC(=O)[C@H](CCCNC(=N)N)NC(=O)C(C)(C)NC(=O)[C@H](CO)NC(=O)[C@H](Cc1c[nH]c2ccccc12)NC(=O)[C@@H](NC(=O)[C@H](CO)NC(=O)[C@H](CCCC)NC(=O)CNC(=O)[C@H](CCC(=O)O)NC(=O)C(C)(C)NC(=O)C(C)(C)NC(=O)[C@@H](NC(=O)[C@H](CCCCNC(C)=O)NC(=O)[C@H](C)NC(=O)[C@H](CCCNC(=N)N)NC(=O)[C@@H](NC(=O)[C@H](CCCCN)NC(=O)[C@H](CCC(=O)O)NC(=O)[C@H](CCCNC(=N)N)NC(=O)CNC(=O)[C@H](CCC(=O)O)NC(=O)[C@H](CC(C)C)NC(C)=O)C(C)C)[C@@H](C)CC)[C@@H](C)O)C(N)=O)C(=O)O)C(=O)O)C(=O)O` [compound 33] (Ac-LEGREKVRAK(Ac)I[Aib][Aib]EG[Nle]STWS[Aib]RKK(Ac)[PEG12]K([γGlu-γGlu-γGlu-Stearoyl])-NH2): the concentration for a half-maximal effect (EC50) on RXFP1 was 0.61 nM. On RXFP1, the Emax was 100%. Further, the solubility – broadly, the concentration that dissolves in the medium under given conditions – in data set [1] (acetate buffer, pH 4.5, read-out: Solubility Acetate buffer pH 4.5) is 5400 µg/mL (≈ 1280 µM); in data set [1] (phosphate buffer, pH 7.4, read-out: Solubility phosphate buffer pH 7.4), 5400 µg/mL (≈ 1280 µM). For the same compound, the “Human Plasma stability % remaining T = 0” value in data set [2] came out at 100%. In addition, the amount remaining at 1 h, 5 µM in data set [2] (setting [10]) was 99%; in data set [3] (setting [12]), 93%. Further, the figures for the fraction remaining at 4 h, 5 µM in data set [2] (setting [11]) and in data set [3] (setting [13]) were 96% and 80%, respectively. Moreover, the “Rat plasma stability % remaining T = 0” value in data set [3] was 100%.

Take `CCCCCCCCCCCCCCCC(=O)N[C@@H](CCC(=O)N[C@@H](CCC(=O)N[C@@H](CCC(=O)N[C@@H](CCC(=O)NCCCC[C@H](NC(=O)COCCOCCNC(=O)COCCOCCNC(=O)COCCOCCNC(=O)COCCOCCNC(=O)[C@H](CCCCNC(C)=O)NC(=O)[C@H](C)NC(=O)[C@H](CCCNC(=N)N)NC(=O)[C@](C)(CCCCN)NC(=O)[C@H](CO)NC(=O)[C@H](Cc1ccccc1)NC(=O)[C@@H](NC(=O)[C@H](CO)NC(=O)[C@H](CCC(N)=O)NC(=O)CNC(=O)[C@H](CCC(=O)O)NC(=O)C(C)(C)NC(=O)C(C)(C)NC(=O)[C@@H](NC(=O)[C@H](CCCCNC(C)=O)NC(=O)[C@H](C)NC(=O)[C@H](CCCNC(=N)N)NC(=O)[C@@H](NC(=O)[C@H](CCCCN)NC(=O)[C@H](CCC(=O)O)NC(=O)[C@H](CCCNC(=N)N)NC(=O)CNC(=O)[C@H](CCC(=O)O)NC(=O)[C@H](CC(C)C)NC(C)=O)C(C)C)[C@@H](C)CC)[C@@H](C)O)C(N)=O)C(=O)O)C(=O)O)C(=O)O)C(=O)O` [compound 170] (Ac-LEGREKVRAK(Ac)I[Aib][Aib]EGQSTFS[αMeK]RAK(Ac)[AEEA][AEEA][AEEA][AEEA]K([γGlu-γGlu-γGlu-γGlu-Palmitoyl])-NH2): the concentration for a half-maximal effect (EC50) on RXFP1 was 0.01 nM. The Emax at RXFP1 was found to be 87%. The solubility was 9800 µg/mL (≈ 2280 µM) in data set [1] (setting [4]) and > 10000 µg/mL in data set [1] (setting [5]). Also, in data set [2], the “Human Plasma stability % remaining T = 0” value was found to be 100%. Further, the amount remaining at 1 h, 5 µM in data set [2] (setting [6]) and in data set [3] (setting [8]) was 107% throughout. Besides, the share remaining at 4 h, 5 µM in data set [2] (setting [7]) amounted to 106%; in data set [3] (setting [9]), 99%. Besides, the “Rat plasma stability % remaining T = 0” value in data set [3] turned out to be 100%.

On to `CCCCCCCCCCCCCCCCCC(=O)N[C@@H](CCC(=O)N[C@@H](CCC(=O)N[C@@H](CCC(=O)NCCOCCOCC(=O)NCCOCCOCC(=O)NCCOCCOCC(=O)NCCCC[C@H](NC(=O)[C@H](CCCCNC(C)=O)NC(=O)[C@H](CCCCN)NC(=O)[C@H](CCCNC(=N)N)NC(=O)C(C)(C)NC(=O)[C@H](CO)NC(=O)[C@H](Cc1c[nH]c2ccccc12)NC(=O)[C@@H](NC(=O)[C@H](CO)NC(=O)[C@H](CCCC)NC(=O)CNC(=O)[C@H](CCC(=O)O)NC(=O)C(C)(C)NC(=O)C(C)(C)NC(=O)[C@@H](NC(=O)[C@H](CCCCNC(C)=O)NC(=O)[C@H](C)NC(=O)[C@H](CCCNC(=N)N)NC(=O)[C@@H](NC(=O)[C@H](CCCCN)NC(=O)[C@H](CCC(=O)O)NC(=O)[C@H](CCCNC(=N)N)NC(=O)CNC(=O)[C@H](CCC(=O)O)NC(=O)[C@H](CC(C)C)NC(C)=O)C(C)C)[C@@H](C)CC)[C@@H](C)O)C(N)=O)C(=O)O)C(=O)O)C(=O)O` [compound 81] (Ac-LEGREKVRAK(Ac)I[Aib][Aib]EG[Nle]STWS[Aib]RKK(Ac)K([AEEA-AEEA-AEEA-γGlu-γGlu-γGlu-Stearoyl])-NH2), for which the concentration for a half-maximal effect (EC50) on RXFP1 worked out at 0.22 nM. On RXFP1, the maximal effect (Emax) came to 84%. The solubility in data set [1] (acetate buffer 50 mM pH 4.5, target solubility 15.0 mg/ml, read-out: Solubility Acetate buffer pH 4.5) is 11900 µg/mL (≈ 2920 µM). For the same compound, the “Human Plasma stability % remaining T = 0” value in data set [2] amounted to 100%. Also, the share remaining at 1 h, 5 µM in data set [2] (setting [10]) worked out at 111%; in data set [3] (setting [12]), 101%. Besides, the share remaining at 4 h, 5 µM in data set [2] (setting [11]) amounted to 111%; in data set [3] (setting [13]) it was 114%. The “Rat plasma stability % remaining T = 0” value in data set [3] was found to be 100%.
